# Laboratory results reported in ChEMBL document CHEMBL4028834, “Stereoselective synthesis of enantiopure N-substituted pyrrolidin-2,5-dione derivatives by 1,3-dipolar cycloaddition and assessment of their in vitro antioxidant and antibacterial activities” (Bioorg Med Chem Lett, 2017).
# The source made the active and inactive calls. No cut-off for these calls is given here.
# Columns and labels:
# Salmonella enteritidis [1] = assay: Antibacterial activity against Salmonella enterica serotype Enteritidis ATCC 43972 assessed as diameter of inhibition zone at 125 mg/ml by agar well diffusion method; assay type: functional, Salmonella enterica subsp. enterica serovar Enteritidis; conditions: read-out: DIZ
# Staphylococcus aureus [2] = assay: Antibacterial activity against Staphylococcus aureus ATCC 6538 after 24 hrs by MTT dye based microdilution method; assay type: functional; conditions: ATCC 6538, 24 h
# Salmonella enteritidis [3] = assay: Bactericidal activity against Salmonella enterica serotype Enteritidis ATCC 43972 after 48 hrs by MTT dye based microdilution method; assay type: functional, Salmonella enterica subsp. enterica serovar Enteritidis; conditions: ATCC 43972, 48 h
# [4] = Antioxidant activity assessed as DPPH free radical scavenging activity at 2.5 mg/ml incubated for 20 mins in dark (reference value: 1 to 9%); assay type: functional
# Staphylococcus aureus [5] = assay: Bactericidal activity against Staphylococcus aureus ATCC 6538 after 48 hrs by MTT dye based microdilution method; assay type: functional; conditions: ATCC 6538, 48 h
# Bacillus cereus [6] = assay: Antibacterial activity against Bacillus cereus JN934390 assessed as diameter of inhibition zone at 125 mg/ml by agar well diffusion method; assay type: functional; conditions: read-out: DIZ
# [7] = Antioxidant activity assessed as ABTS radical scavenging activity at 2.5 mg/ml incubated for 2 hrs in dark by spectrophotometric analysis (reference value: 1 to 9%); assay type: functional
# Bacillus subtilis [8] = assay: Antibacterial activity against Bacillus subtilis JN934392 after 24 hrs by MTT dye based microdilution method; assay type: functional; conditions: JN934392, 24 h
# [9] = Antioxidant activity assessed as reduction in beta-carotene/linoleic acid bleaching activity after 2 hrs by spectrophotometric method; assay type: functional
# [10] = Antioxidant activity assessed as reduction in beta-carotene/linoleic acid bleaching activity at 2 mg/ml after 2 hrs by spectrophotometric method (reference value: 1 to 8%); assay type: functional; design: scale not given: the % may be the effect or the level left
# Listeria monocytogenes [11] = assay: Antibacterial activity against Listeria monocytogenes after 24 hrs by MTT dye based microdilution method; assay type: functional
# [12] = Antioxidant activity assessed as reduction in beta-carotene/linoleic acid bleaching activity at 1 mg/ml after 2 hrs by spectrophotometric method (reference value: 1 to 8%); assay type: functional; design: scale not given: the % may be the effect or the level left
# [13] = Antioxidant activity assessed as DPPH free radical scavenging activity at 3 mg/ml incubated for 20 mins in dark (reference value: 1 to 9%); assay type: functional
# Salmonella enteritidis [14] = assay: Antibacterial activity against Salmonella enterica serotype Enteritidis ATCC 43972 after 24 hrs by MTT dye based microdilution method; assay type: functional, Salmonella enterica subsp. enterica serovar Enteritidis; conditions: ATCC 43972, 24 h
# [15] = Antioxidant activity assessed as ABTS radical scavenging activity incubated for 2 hrs in dark by spectrophotometric analysis; assay type: functional
# [16] = Antioxidant activity assessed as ABTS radical scavenging activity at 0.5 mg/ml incubated for 2 hrs in dark by spectrophotometric analysis (reference value: 1 to 9 %); assay type: functional
# Bacillus subtilis [17] = assay: Antibacterial activity against Bacillus subtilis JN934392 assessed as diameter of inhibition zone at 125 mg/ml by agar well diffusion method; assay type: functional; conditions: read-out: DIZ
# [18] = Antioxidant activity assessed as DPPH free radical scavenging activity at 2 mg/ml incubated for 20 mins in dark (reference value: 1 to 9%); assay type: functional
# Escherichia coli [19] = assay: Antibacterial activity against Escherichia coli ATCC 25922 assessed as diameter of inhibition zone at 125 mg/ml by agar well diffusion method; assay type: functional
# Micrococcus luteus [20] = assay: Antibacterial activity against Micrococcus luteus assessed as diameter of inhibition zone at 125 mg/ml by agar well diffusion method; assay type: functional; conditions: read-out: DIZ
# [21] = Antioxidant activity assessed as DPPH free radical scavenging activity at 1 mg/ml incubated for 20 mins in dark (reference value: 1 to 9%); assay type: functional
# [22] = Antioxidant activity assessed as ABTS radical scavenging activity at 2 mg/ml incubated for 2 hrs in dark by spectrophotometric analysis (reference value: 1 to 9%); assay type: functional
# Bacillus cereus [23] = assay: Antibacterial activity against Bacillus cereus JN934390 after 24 hrs by MTT dye based microdilution method; assay type: functional; conditions: JN934390, 24 h
# Listeria monocytogenes [24] = assay: Antibacterial activity against Listeria monocytogenes assessed as diameter of inhibition zone at 125 mg/ml by agar well diffusion method; assay type: functional; conditions: read-out: DIZ
# Klebsiella pneumoniae [25] = assay: Antibacterial activity against Klebsiella pneumoniae assessed as diameter of inhibition zone at 125 mg/ml by agar well diffusion method; assay type: functional; conditions: read-out: DIZ
# [26] = Antioxidant activity assessed as DPPH free radical scavenging activity incubated for 20 mins in dark; assay type: functional
# [27] = Antioxidant activity assessed as reduction in beta-carotene/linoleic acid bleaching activity at 3 mg/ml after 2 hrs by spectrophotometric method (reference value: 1 to 8%); assay type: functional; design: scale not given: the % may be the effect or the level left
# [28] = Antioxidant activity assessed as reduction in beta-carotene/linoleic acid bleaching activity at 0.5 mg/ml after 2 hrs by spectrophotometric method (reference value: 1 to 8 %); assay type: functional; design: scale not given: the % may be the effect or the level left
# Staphylococcus aureus [29] = assay: Antibacterial activity against Staphylococcus aureus ATCC 6538 assessed as diameter of inhibition zone at 125 mg/ml by agar well diffusion method; assay type: functional; conditions: read-out: DIZ
# [30] = Antioxidant activity assessed as reduction in beta-carotene/linoleic acid bleaching activity at 2.5 mg/ml after 2 hrs by spectrophotometric method (reference value: 1 to 8%); assay type: functional; design: scale not given: the % may be the effect or the level left
# Bacillus cereus [31] = assay: Bactericidal activity against Bacillus cereus JN934390 after 48 hrs by MTT dye based microdilution method; assay type: functional; conditions: JN934390, 48 h
# [32] = Antioxidant activity assessed as ABTS radical scavenging activity at 3 mg/ml incubated for 2 hrs in dark by spectrophotometric analysis (reference value: 1 to 9%); assay type: functional
# Klebsiella pneumoniae [33] = assay: Antibacterial activity against Klebsiella pneumoniae after 24 hrs by MTT dye based microdilution method; assay type: functional
# [34] = Antioxidant activity assessed as DPPH free radical scavenging activity at 0.5 mg/ml incubated for 20 mins in dark (reference value: 1 to 9 %); assay type: functional
# Bacillus subtilis [35] = assay: Bactericidal activity against Bacillus subtilis JN934392 after 48 hrs by MTT dye based microdilution method; assay type: functional; conditions: JN934392, 48 h
# [36] = Antioxidant activity assessed as ABTS radical scavenging activity at 1 mg/ml incubated for 2 hrs in dark by spectrophotometric analysis (reference value: 1 to 9%); assay type: functional
# Micrococcus luteus [37] = assay: Antibacterial activity against Micrococcus luteus after 24 hrs by MTT dye based microdilution method; assay type: functional
# Listeria monocytogenes [38] = assay: Potency index, ratio of compound DIZ to chloramphenicol DIZ for Listeria monocytogenes; assay type: functional
# Listeria monocytogenes [39] = assay: Bactericidal activity against Listeria monocytogenes after 48 hrs by MTT dye based microdilution method; assay type: functional
# Klebsiella pneumoniae [40] = assay: Bactericidal activity against Klebsiella pneumoniae after 48 hrs by MTT dye based microdilution method; assay type: functional
# Micrococcus luteus [41] = assay: Bactericidal activity against Micrococcus luteus after 48 hrs by MTT dye based microdilution method; assay type: functional
# Listeria monocytogenes [42] = assay: Antibacterial activity against Listeria monocytogenes assessed as diameter of inhibition zone at 15 microg/well by agar well diffusion method; assay type: functional; conditions: read-out: DIZ
# Salmonella enteritidis [43] = assay: Antibacterial activity against Salmonella enterica serotype Enteritidis ATCC 43972 assessed as diameter of inhibition zone at 15 microg/well by agar well diffusion method; assay type: functional, Salmonella enterica subsp. enterica serovar Enteritidis; conditions: read-out: DIZ
# Bacillus cereus [44] = assay: Antibacterial activity against Bacillus cereus JN934390 assessed as diameter of inhibition zone at 15 microg/well by agar well diffusion method; assay type: functional; conditions: read-out: DIZ
# Escherichia coli [45] = assay: Antibacterial activity against Escherichia coli ATCC 25922 assessed as diameter of inhibition zone at 15 microg/well by agar well diffusion method; assay type: functional; conditions: read-out: DIZ
# Micrococcus luteus [46] = assay: Antibacterial activity against Micrococcus luteus assessed as diameter of inhibition zone at 15 microg/well by agar well diffusion method; assay type: functional; conditions: read-out: DIZ
# Klebsiella pneumoniae [47] = assay: Antibacterial activity against Klebsiella pneumoniae assessed as diameter of inhibition zone at 15 microg/well by agar well diffusion method; assay type: functional; conditions: read-out: DIZ
# Bacillus subtilis [48] = assay: Antibacterial activity against Bacillus subtilis JN934392 assessed as diameter of inhibition zone at 15 microg/well by agar well diffusion method; assay type: functional; conditions: read-out: DIZ
# Staphylococcus aureus [49] = assay: Antibacterial activity against Staphylococcus aureus ATCC 6538 assessed as diameter of inhibition zone at 15 microg/well by agar well diffusion method; assay type: functional; conditions: read-out: DIZ
structure (smiles),measurement,setting,value
COc1ccc(N2C(=O)[C@H]3[C@H](ON4[C@@H]3C(=O)N(C)[C@@]43C[C@H](C)CC[C@H]3C(C)C)C2=O)cc1,zone of inhibition at 125000 µg/mL,Salmonella enteritidis [1],15 mm
same,MIC,Staphylococcus aureus [2],6250 µg/mL
same,MBC,Salmonella enteritidis [3],50000 µg/mL
same,Activity,[4],65.3%
same,MBC,Staphylococcus aureus [5],50000 µg/mL
same,zone of inhibition at 125000 µg/mL,Bacillus cereus [6],12.7 mm
same,Activity,[7],71.5%
same,MIC,Bacillus subtilis [8],6250 µg/mL
same,IC50,[9],990 µg/mL
same,Activity,[10],55.7%
same,MIC,Listeria monocytogenes [11],12500 µg/mL
same,Activity,[12],50%
same,Activity,[13],68.2%
same,MIC,Salmonella enteritidis [14],3120 µg/mL
same,IC50,[15],480 µg/mL
same,Activity,[16],48.9%
same,zone of inhibition at 125000 µg/mL,Bacillus subtilis [17],11.3 mm
same,Activity,[18],61.7%
same,diameter of the inhibition zone (DIZ),Escherichia coli [19],inactive
same,zone of inhibition at 125000 µg/mL,Micrococcus luteus [20],10 mm
same,Activity,[21],48.1%
same,Activity,[22],68.9%
same,MIC,Bacillus cereus [23],6250 µg/mL
same,zone of inhibition at 125000 µg/mL,Listeria monocytogenes [24],11 mm
same,zone of inhibition at 125000 µg/mL,Klebsiella pneumoniae [25],9 mm
same,Activity,[26],Dose-dependent effect
same,IC50,[26],1120 µg/mL
same,Activity,[27],67.7%
same,Activity,[28],44.5%
same,zone of inhibition at 125000 µg/mL,Staphylococcus aureus [29],9.66 mm
same,Activity,[30],59.3%
same,MBC,Bacillus cereus [31],50000 µg/mL
same,Activity,[32],75.1%
same,MIC,Klebsiella pneumoniae [33],12500 µg/mL
same,Activity,[34],32.9%
same,MBC,Bacillus subtilis [35],50000 µg/mL
same,Activity,[36],61%
same,MIC,Micrococcus luteus [37],12500 µg/mL
Cc1ccc(N2C(=O)[C@H]3[C@H](ON4[C@@H]3C(=O)N(C)[C@@]43C[C@H](C)CC[C@H]3C(C)C)C2=O)c(C)c1,zone of inhibition at 125000 µg/mL,Salmonella enteritidis [1],20.3 mm
same,MIC,Staphylococcus aureus [2],6250 µg/mL
same,MBC,Salmonella enteritidis [3],12500 µg/mL
same,Activity,[4],77.1%
same,Ratio,Listeria monocytogenes [38],2
same,MBC,Staphylococcus aureus [5],12500 µg/mL
same,MBC,Listeria monocytogenes [39],3120 µg/mL
same,zone of inhibition at 125000 µg/mL,Bacillus cereus [6],21.7 mm
same,Activity,[7],82.6%
same,MIC,Bacillus subtilis [8],3120 µg/mL
same,MBC,Klebsiella pneumoniae [40],6250 µg/mL
same,IC50,[9],430 µg/mL
same,Activity,[10],57%
same,MIC,Listeria monocytogenes [11],1560 µg/mL
same,Activity,[12],53.1%
same,Activity,[13],73.2 to 89.3%
same,MIC,Salmonella enteritidis [14],3120 µg/mL
same,IC50,[15],420 µg/mL
same,Activity,[16],52.9%
same,zone of inhibition at 125000 µg/mL,Bacillus subtilis [17],20.7 mm
same,Activity,[18],72%
same,diameter of the inhibition zone (DIZ),Escherichia coli [19],inactive
same,zone of inhibition at 125000 µg/mL,Micrococcus luteus [20],9.66 mm
same,Activity,[21],57%
same,Activity,[22],79.4%
same,MIC,Bacillus cereus [23],3120 µg/mL
same,zone of inhibition at 125000 µg/mL,Listeria monocytogenes [24],24.7 mm
same,zone of inhibition at 125000 µg/mL,Klebsiella pneumoniae [25],23 mm
same,Activity,[26],Dose-dependent effect
same,IC50,[26],500 µg/mL
same,Activity,[27],71.3%
same,Activity,[28],51%
same,zone of inhibition at 125000 µg/mL,Staphylococcus aureus [29],22 mm
same,Activity,[30],65.6%
same,MBC,Bacillus cereus [31],25000 µg/mL
same,Activity,[32],85.8%
same,MIC,Klebsiella pneumoniae [33],3120 µg/mL
same,Activity,[34],49.9%
same,MBC,Bacillus subtilis [35],12500 µg/mL
same,Activity,[36],69%
same,MBC,Micrococcus luteus [41],50000 µg/mL
same,MIC,Micrococcus luteus [37],6250 µg/mL
O=C(N[C@H](CO)[C@H](O)c1ccc([N+](=O)[O-])cc1)C(Cl)Cl [CHLORAMPHENICOL],zone of inhibition at 15 µg/disc,Listeria monocytogenes [42],12 mm
same,zone of inhibition at 15 µg/disc,Salmonella enteritidis [43],16 mm
same,zone of inhibition at 15 µg/disc,Bacillus cereus [44],26 mm
same,zone of inhibition at 15 µg/disc,Escherichia coli [45],23.5 mm
same,zone of inhibition at 15 µg/disc,Micrococcus luteus [46],20 mm
same,zone of inhibition at 15 µg/disc,Klebsiella pneumoniae [47],22 mm
same,zone of inhibition at 15 µg/disc,Bacillus subtilis [48],24 mm
same,zone of inhibition at 15 µg/disc,Staphylococcus aureus [49],17 mm
